# US7833991B2, “Amine compound and use thereof” (Kureha Corporation, priority 2002, dated 2010)
# Assays:
# [1] = tested on: HIV-1IIIB infected MT-4 cells; assay: Antiviral activity in HIV-1IIIB infected MT-4 cells, MTT method (Test Examples 1 and 5); type: cell-based; conditions: Human immunodeficiency virus 1, MT4; as in Test Example 1; Table 5; read-out: HIV Activity EC50
# Description: Immediately after infection, HIV-1IIIB infected MT-4 cells (3.0×10^4/well, MOI (Multiplicity of infection): 0.01) were added to a 96-well microtiter plate together with the test compounds having different concentrations. The cells were cultured in a carbon dioxide incubator at 37° C. for 5 days, and the number of living cells was measured in accordance with the MTT (tetrazolium) method (Pawels, et al., Journal of Virology Method, 20, 309-321 ([…])). The antiviral activity is represented by the concentration required for inhibition of cell disorder due to HIV by 50% (EC50: 50% Effective Concentration) (μM), and the results are shown in Table 2.
# (§1) Compounds of the present invention having various substituted and unsubstituted heterocyclic rings for the substituent A2 of formula (1) were tested for antiviral (anti-HIV) activity as in Test Example 1 and for CXCR4 activity as in Test Example 2. The compounds, various substituents of the compounds, antiviral activity represented by the concentration required for inhibition of all disorder due to HIV injection by 50% (EC50: 50% Effective Concentration, μM), and CXCR4 activity calculated as a rate of inhibition of the binding between radioactive ligands and CXCR4 receptors by a test material (a binding-inhibition % at 0.1 μM) are shown in Table 5: […]
# CXCR4 = molecular target: T1, CXCR4 (Homo sapiens, UniProt P61073); assay: Inhibition of 125I-SDF-1α binding to receptors CXCR4 on MT-4 cells (Test Examples 2 and 5); conditions: binding-inhibition % at 0.1 μM, as in Test Example 2; Table 5; read-out: CXCR4 Activity % at 0.1 μM
# T1 construct: endogenous in cells; host or cells: MT-4 cells
# T1 sequence (P61073 whole entry): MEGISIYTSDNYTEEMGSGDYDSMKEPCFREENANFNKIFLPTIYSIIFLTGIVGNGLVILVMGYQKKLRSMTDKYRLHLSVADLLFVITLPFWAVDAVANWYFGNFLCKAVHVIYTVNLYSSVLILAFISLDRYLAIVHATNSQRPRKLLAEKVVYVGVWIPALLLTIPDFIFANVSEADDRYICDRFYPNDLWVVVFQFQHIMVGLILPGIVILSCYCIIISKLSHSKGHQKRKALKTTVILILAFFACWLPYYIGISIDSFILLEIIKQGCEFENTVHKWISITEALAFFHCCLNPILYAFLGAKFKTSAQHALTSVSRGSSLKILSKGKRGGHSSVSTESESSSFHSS
# Description: MT-4 cells (5×10^6/0.2 ml/well) were cultured on a 24-well microtiter plate. After the cells were incubated for 24 hours at 37° C. in a carbon dioxide gas incubator, a culture medium was replaced with a buffer solution (0.1% BSA-containing RPMI-1640). Together with a ligand ^125I-SDF-1α, (specific activity: 2,200 Ci/mmol; available from Daiichi Pure Chemicals Co., Ltd. (Tokyo)), test materials with various concentrations were subjected to a binding reaction for 2 hours under ice-cooling. […] Then, a rate of inhibition of the binding between radio-active ligands and receptors CXCR4 by a test material was calculated (a binding-inhibition % at 0.1 μM).
# as §1
SMILES,inhibition at 0.1 µM (CXCR4) [%],EC50 [1] [nM]
"Cn1ccnc1CN(Cc1ccc(C(=O)Nc2ccc(CNC3CCCCC3)cc2)cc1)Cc1ncc[nH]1 [Compound No. 88, N-(4-cyclohexylaminomethylphenyl)-4-{[(1H-imidazol-2-ylmethyl)-(1-methyl-1H-imidazol-2-ylmethyl)-amino]-methyl}-benzamide]",99,5
"CCCN(CCC)Cc1ccc(NC(=O)c2ccc(CN(Cc3nccn3C)Cc3nccn3C)cc2)cc1 [Compound No. 41, 4-{[bis(1-methyl-1H-imidazol-2-ylmethyl)-amino]-methyl}-N-(4-dipropylaminomethylphenyl)-benzamide]",,3
"CCCN(CCC)c1ccc(NC(=O)c2ccc(CN(Cc3ncc[nH]3)Cc3ncc[nH]3)cc2)cc1 [Compound No. 15, 4-{[bis(1H-imidazol-2-ylmethyl)-amino]-methyl}-N-(4-dipropylaminophenyl)-benzamide]",46.9,
"CCCN(CCC)Cc1ccc(NC(=O)c2ccc(CN(Cc3ccc(C)cn3)Cc3nccn3C)cc2)cc1 [Compound No. 76, N-(4-dipropylaminomethylphenyl)-4-{[(1-methyl-1H-imidazol-2-ylmethyl)-(5-methylpyridin-2-ylmethyl)-amino]-methyl}-benzamide]",,7
"CCCN(CCC)Cc1ccc(NC(=O)c2ccc(CN(Cc3ncc[nH]3)Cc3nccn3CCO)cc2)cc1 [Compound No. 94, N-(4-dipropylaminomethylphenyl)-4-({[1-(2-hydroxyethyl)-1H-imidazol-2-ylmethyl]-(1H-imidazol-2-ylmethyl)-amino}-methyl)-benzamide]",100,3
"CCCN(CCC)Cc1ccc(NC(=O)c2ccc(CN(Cc3ncc[nH]3)Cc3ncc[nH]3)c3ccccc23)cc1 [Compound No. 36, 4-{[bis(1H-imidazol-2-ylmethyl)-amino]-methyl}-naphtalene-1-carboxylic acid (4-dipropylaminomethylphenyl)-amide]",89.6,501
"CCCN(CCC)Cc1ccc(NC(=O)c2ccc(CN(Cc3ncc[nH]3)Cc3nccn3CC)cc2)cc1 [Compound No. 91, N-(4-dipropylaminomethylphenyl)-4-{[(1-ethyl-1H-imidazol-2-ylmethyl)-(1H-imidazol-2-ylmethyl)-amino]-methyl}-benzamide]",,15
"CCCN(CCC)Cc1ccc(NC(=O)c2ccc(CN(Cc3ccc4cccc(O)c4n3)Cc3ncc[nH]3)cc2)cc1 [Compound No. 72, N-(4-dipropylaminomethylphenyl)-4-{[(8-hydroxyquinolin-2-ylmethyl)-(1H-imidazol-2-ylmethyl)-amino]-methyl}-benzamide]",100,4
"CCCN(CCC)Cc1ccc(NC(=O)c2ccc(CN(Cc3ncc[nH]3)Cc3nccn3CCC)cc2)cc1 [Compound No. 92, N-(4-dipropylaminomethylphenyl)-4-{[(1H-imidazol-2-ylmethyl)-(1-propyl-1H-imidazol-2-ylmethyl)-amino]-methyl}-benzamide]",,48
"CCCN(CCC)Cc1cccc(NC(=O)c2ccc(CN(Cc3ncc[nH]3)Cc3ncc[nH]3)cc2)c1 [Compound No. 33, 4-{[bis(1H-imidazol-2-ylmethyl)-amino]-methyl}-N-(3-dipropylaminomethylphenyl)-benzamide]",97.8,46
"CCCN(CCC)Cc1ccc(NC(=O)c2ccc(CN(Cc3ccc4ccccc4n3)Cc3ncc[nH]3)cc2)cc1 [Compound No. 55, N-(4-dipropylaminomethylphenyl)-4-{[(1H-imidazol-2-ylmethyl)-(quinolin-2-ylmethyl)-amino]-methyl}-benzamide]",21,635
"CCCN(CCC)Cc1ccc(NC(=O)c2ccc(CN(Cc3nc[nH]n3)Cc3nccn3C)cc2)cc1 [Compound No. 123, N-(4-di-n-propylaminomethyl-phenyl)-4-{[(1-methyl-imidazol-2-ylmethyl)-(1H-[1,2,4]-triazol-3-ylmethyl)-amino]-methyl}-benzamide]",,68
"O=C(Nc1ccc(CNC2CCCCC2)cc1)c1ccc(CN(Cc2ncc[nH]2)Cc2ncc[nH]2)cc1 [Compound No. 89, 4-{[bis(1H-imidazol-2-ylmethyl)-amino]-methyl}-N-(4-cyclohexylaminomethylphenyl)-benzamide]",,9
"CCCN(CCC)Cc1ccc(NC(=O)c2ccc(CN(Cc3cc(C)ccn3)Cc3ncc[nH]3)cc2)cc1 [Compound No. 78, N-(4-dipropylaminomethylphenyl)-4-{[N-(1H-imidazol-2-ylmethyl)-(4-methylpyridin-2-ylmethyl)-amino]-methyl}-benzamide]",,19

# Further lines, with some results ahead:
inhibition at 0.1 µM (CXCR4) [%],SMILES,EC50 [1] [nM]
18.6,"CCCN(CCC)Cc1ccc(NC(=O)c2ccc(CN(Cc3ccncc3)Cc3ncc[nH]3)cc2)cc1 [Compound No. 58, N-(4-dipropylaminomethylphenyl)-4-{[(1H-imidazol-2-ylmethyl)-(pyridin-4-ylmethyl)-amino]-methyl}-benzamide]",97
96.4,"CCCN(CCC)Cc1ccc(NC(=O)c2ccc(CN(Cc3nc[nH]n3)Cc3ncc[nH]3)cc2)cc1 [Compound No. 114, N-(4-di-n-propylaminomethyl-phenyl)-4-{[(1H-imidazol-2-ylmethyl)-(1H-[1,2,4]-triazol-3-ylmethyl)-amino]-methyl}-benzamide]",89
98.4,"CCCN(CCC)Cc1ccc(NC(=O)c2ccc(CN(Cc3ccc(CC)cn3)Cc3ncc[nH]3)cc2)cc1 [Compound No. 102, N-(4-dipropylaminomethyl-phenyl)-4-{[(5-ethyl-pyridin-2-ylmethyl)-(1H-imidazol-2-ylmethyl)-amino]-methyl}-benzamide]",3
14.7,"CCCN(CCC)Cc1ccc(NC(=O)c2ccc(CN(Cc3ncc[nH]3)Cc3nccc4ccccc34)cc2)cc1 [Compound No. 63, N-(4-dipropylaminomethylphenyl)-4-{[(1H-imidazol-2-ylmethyl)-(isoquinolin-1-ylmethyl)-amino]-methyl}-benzamide]",81
98.2,"CCCN(CCC)Cc1ccc(NC(=O)c2ccc(CN(Cc3ncc[nH]3)Cc3ncccc3OCC)cc2)cc1 [Compound No. 59, N-(4-dipropylaminomethylphenyl)-4-{[(1H-imidazol-2-ylmethyl)-(3-ethoxypyridin-2-ylmethyl)-amino]-methyl}-benzamide]",24
97.7,"CCCN(CCC)Cc1ccc(NC(=O)c2ccc(CN(Cc3ncc[nH]3)Cc3ncccc3C)cc2)cc1 [Compound No. 53, N-(4-dipropylaminomethylphenyl)-4-{[(1H-imidazol-2-ylmethyl)-(3-methylpyridin-2-ylmethyl)-amino]-methyl}-benzamide]",9
100,"CCCN(CCC)Cc1ccc(NC(=O)c2ccc(CN(Cc3ncc[nH]3)Cc3ncc(C)c(OC)c3C)cc2)cc1 [Compound No. 64, N-(4-dipropylaminomethylphenyl)-4-{[(1H-imidazol-2-ylmethyl)-(4-methoxy-3,5-dimethylpyridin-2-ylmethyl)-amino]-methyl}-benzamide]",18
98.8,"CCCN(CCC)Cc1ccc(NC(=O)c2ccc(CN(Cc3ccc(C)cn3)Cc3ncc[nH]3)cc2)cc1 [Compound No. 56, N-(4-dipropylaminomethylphenyl)-4-{[(1H-imidazol-2-ylmethyl)-(5-methylpyridin-2-ylmethyl)-amino]-methyl}-benzamide]",3
99.1,"CCCN(CCC)Cc1ccc(NC(=O)c2ccc(CN(Cc3ncc[nH]3)Cc3ncc(C)cc3C)cc2)cc1 [Compound No. 101, 4-{[(3,5-dimethyl-pyridin-2-ylmethyl)-(1H-imidazol-2-ylmethyl)-amino]-methyl}-N-(4-dipropylaminomethyl-phenyl)-benzamide]",5
97.7,"CCCN(CCC)Cc1ccc(NC(=O)c2ccc(CN(Cc3ccccn3)Cc3ncc[nH]3)cc2)cc1 [Compound No. 48, N-(4-dipropylaminomethylphenyl)-4-{[(1H-imidazol-2-ylmethyl)-(pyridin-2-ylmethyl)-amino]-methyl}-benzamide]",22
98.8,"CCCN(CCC)Cc1ccc(NC(=O)c2ccc(CN(Cc3cc4ccccc4cn3)Cc3ncc[nH]3)cc2)cc1 [Compound No. 47, N-(4-dipropylaminomethylphenyl)-4-{[(1H-imidazol-2-ylmethyl)-(isoquinolin-3-ylmethyl)-amino]-methyl}-benzamide]",20
